We go through eight molecules from patent publication US10036047B2, “Methods for hydroxylating phenylpropanoids” (University of Georgia Research Foundation, Inc., priority 2013, dated 2018).

Values joined by “and” are separate entries in the source; they are usually repeats but may differ in a detail not shown here. Equal entries are not always repeated. Where two headings read alike, the source gives them in different places.

Data set [1] addresses T1, HpaBC (Escherichia coli, UniProt Q57160).
T1 construct: expressed in transfected cells; host or cells: E. coli strain harboring pZE-HpaBC
The data set can be described thus: Whole-cell biocatalysis with E. coli cells over-expressing HpaBC. The format is cell-based. The conditions noted are these: for whole cell bioconversion of substrate into hydroxylated product: 500 mg/L substrate, about 3.3 g/L DCW, in 3 h. How it is done: The E. coli strain harboring pZE-HpaBC was first cultivated in 50 ml LB liquid medium at 37° C. till OD600 values reached 0.6. Then the cells were transferred to 30° C. and induced with 0.5 mM IPTG for additional 6 hours. After that, cells were harvested, re-suspended in 15 ml M9Y medium (0D600=9.6), and incubated in a rotary shaker at 300 rpm. […] When the substrate concentrations fell below 0.5 g/L, additional 1 g/L substrates were supplemented. […] Samples were taken every few hours and analyzed by HPLC.
Whole-cell biocatalysis is an efficient and economical way to scale up enzyme-catalyzed reactions.
T1 sequence (Q57160 whole entry): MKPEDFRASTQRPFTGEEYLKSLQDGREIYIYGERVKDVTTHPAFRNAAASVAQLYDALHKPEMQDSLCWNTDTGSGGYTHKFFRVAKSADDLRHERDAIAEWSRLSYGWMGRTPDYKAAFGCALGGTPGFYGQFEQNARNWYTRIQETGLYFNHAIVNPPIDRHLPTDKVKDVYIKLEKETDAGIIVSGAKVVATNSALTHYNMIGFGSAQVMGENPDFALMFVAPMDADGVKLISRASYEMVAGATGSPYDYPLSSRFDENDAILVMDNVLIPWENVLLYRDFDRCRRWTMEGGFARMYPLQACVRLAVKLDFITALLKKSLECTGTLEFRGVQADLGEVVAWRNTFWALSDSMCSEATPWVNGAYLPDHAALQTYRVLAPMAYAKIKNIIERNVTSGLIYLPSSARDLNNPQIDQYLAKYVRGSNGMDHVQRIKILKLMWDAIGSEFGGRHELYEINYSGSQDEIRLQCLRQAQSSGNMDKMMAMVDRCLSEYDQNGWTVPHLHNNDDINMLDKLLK

The target in data set [2] is T2, HpaBC (Escherichia coli, UniProt Q57160).
T2 sequence (Q57160 2-520): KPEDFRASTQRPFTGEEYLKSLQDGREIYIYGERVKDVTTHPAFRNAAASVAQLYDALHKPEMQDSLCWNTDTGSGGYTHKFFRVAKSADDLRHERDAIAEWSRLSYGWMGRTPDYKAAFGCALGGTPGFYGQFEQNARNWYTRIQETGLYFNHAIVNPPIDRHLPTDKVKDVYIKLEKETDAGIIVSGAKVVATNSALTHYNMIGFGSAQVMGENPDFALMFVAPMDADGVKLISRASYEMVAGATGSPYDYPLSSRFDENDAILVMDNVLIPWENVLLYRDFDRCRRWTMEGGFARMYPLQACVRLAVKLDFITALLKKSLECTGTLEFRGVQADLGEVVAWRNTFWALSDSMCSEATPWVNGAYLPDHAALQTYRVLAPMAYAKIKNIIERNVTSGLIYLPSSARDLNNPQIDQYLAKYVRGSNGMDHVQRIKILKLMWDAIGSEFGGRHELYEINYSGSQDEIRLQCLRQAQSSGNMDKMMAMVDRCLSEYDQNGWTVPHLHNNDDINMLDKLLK
The format is biochemical. To be noted: for kcat: kcat=Vmax/[E]. The method, then:
The E. coli strain was transformed with pZE-His7HpaB and pZE-His7HpaC separately. The fresh transformants were pre-inoculated in LB medium containing 100 μg/ml ampicillin and grown at 37° C. aerobically overnight. In the following day, the pre-inoculums were transferred into 50 ml of fresh LB medium at a ratio of 1:100. The cultures were cultivated at 37° C. till the OD600 values reached about 0.6 and then induced by 0.5 mM IPTG. […] The BCA kit (Pierce Chemicals) was used to estimate protein concentrations. […] The HpaBC enzyme assays were carried out according to the protocol described by Louie et al. with minor modifications (Louie et al., 2003. Biochemistry (Mosc) 42(24):7509-17). The 1 ml reaction system contains KPi Buffer (20 mM, pH=7.0), FAD (10 μM), NADH (1 mM), HpaB (0.5 μM), HpaC (0.5 μM), substrates (from 10 to 1000 μM). […] The reaction rates were calculated according to the product formation and substrate consumption, which were measured by HPLC. Apparent kinetic parameters were determined by non-linear regression of the Michaelis-Menten equation using OriginPro8™.
We further investigated and compared the kinetic parameters of HpaBC towards its native substrate 4HPA and the 3 non-native substrates. To do these, a multi-histidine tag was fused to the N-terminus of HpaB and HpaC, which were subsequently over-expressed and purified from E. coli. The enzyme complex was reconsituted in vitro for enzyme assays (FIG. 5).

For data set [3], the target named is T1, HpaBC. Briefly: HpaBC substrates screening: feeding of E. coli strain over-expressing HpaBC. The format is cell-based. The conditions noted are these: 200 mg/L substrate, additional 10 hour incubation. How it is done:
The E. coli strain harboring pZE-HpaBC was pre-inoculated into LB liquid medium containing ampicillin (100 μg/ml) and grown overnight at 37° C. Then 200 μl of the inoculum was transferred into 20 ml of fresh M9Y medium. The E. coli cells were grown at 37° C. till the OD600 values reached around 0.6 and then transferred to 30° C. and induced by 0.5 mM IPTG.
As the initial step towards examining the activity, we constructed a high-copy number plasmid co-expressing hpaB and hpaC (pZE-HpaBC) and introduced it into E. coli. The resulting strain was cultivated and induced with IPTG for enzyme expression for 3 hours, after which 200 mg/L of substrate was added into the cultures. After additional 10 hour incubation, we analyzed the cell-free broth by HPLC. […] We further used naringenin to explore the substrate tolerance limit of HpaBC. […] The three new peaks were collected from HPLC for mass spectrum analysis.

Data set [4] concerns the target T1, HpaBC. The conditions noted are these: from p-coumaric acid; cited from earlier work.
Substrate in data set [5]: Oc1ccc(/C=C/c2cc(O)cc(O)c2)cc1
The data set can be described thus: purified protein, by the assay type. The conditions noted are these: other: apparent, HpaB 0.5 μM, HpaC 0.5 μM, pH 7.0, 30° C.

Substrate in data set [6]: O=c1ccc2ccc(O)cc2o1
Briefly: purified protein, by the assay type. To be noted: other: apparent, HpaB 0.5 μM, HpaC 0.5 μM, pH 7.0, 30° C.

On to `O=C1C[C@@H](c2ccc(O)c(O)c2)Oc2cc(O)cc(O)c21` (single isomer, unassigned) [eriodictyol], for which the product generated in data set [1] (150 mg/L naringenin fed, 10 h) was 16.7 mg/L and 58 μM.
As to `O=c1ccc2cc(O)c(O)cc2o1` (single isomer, unassigned) [esculetin], in data set [1] (end of 18 h, fed substrate, 1.5 mM ascorbic acid), the maximum product titer is 2.7 g/L and 15.5 mM. Also, the “highest hydroxylation rate (product formation)” value in data set [1] (initial 2 h, 1.5 g/L initial substrate) is 298.1 μM/h/OD.
As usually defined, the Km is the substrate concentration at which the rate is half of its maximum. For orientation: kcat means the maximal rate divided by the concentration of active sites. Consider `O=C(O)Cc1ccc(O)cc1` [4-HPA, 4-hydroxyphenylacetate, reference compound], for which the Km in data set [2] (apparent, HpaB 0.5 μM, HpaC 0.5 μM, pH 7.0, 30° C.) amounted to 18.4 µM. Further, the catalytic constant (kcat) is 1.08 ± 0.015 s⁻¹ in data set [2] (apparent, pH 7.0, 30° C.) and 1.08 s⁻¹ in data set [2] (apparent, pH 7.0, 30° C., listed as 4HPA).
Turning to `Oc1ccc(/C=C/c2cc(O)cc(O)c2)cc1` [Resveratrol, 3,5,4′-trihydroxy-trans-stilbene], the “whole cell bioconversion of substrate into hydroxylated product” value in data set [1] was “completely converted”. For the same molecule, in data set [3], the “substrate consumption in culture (HPLC)” value is reported as “completely consumed”. Moreover, the catalytic constant (kcat) in data set [2] (apparent, pH 7.0, 30° C.) was 0.0933 s⁻¹.
Consider `O=c1ccc2ccc(O)cc2o1` [Umbelliferone, umbelliferone], for which the “whole cell bioconversion of substrate into hydroxylated product” value in data set [1] is “completely converted”. Moreover, the “whole-cell conversion efficiency relative to resveratrol” value in data set [1] (umbelliferone vs resveratrol) is “about 3 fold”. In addition, the “substrate consumption in culture (HPLC)” value in data set [3] was “completely consumed”. For the same molecule, the kcat in data set [2] (apparent, pH 7.0, 30° C.) was 0.0667 s⁻¹.
As for `O=C(O)/C=C/c1ccc(O)c(O)c1` [caffeic acid], in data set [4], the “caffeic acid production titer” value is 3.82 g/L and 21.2 mM.
Consider `O=C1C[C@@H](c2ccc(O)cc2)Oc2cc(O)cc(O)c21` [naringenin], for which the “substrate consumption in culture (HPLC)” value in data set [3] is given as “majority of naringenin was left unconverted”. For the same molecule, the “activity of HpaBC towards substrate” value in data set [2] (kinetic parameters not determined) was “low activity”.

B1: HpaBC (Escherichia coli) (protein)
chain: KPEDFRASTQRPFTGEEYLKSLQDGREIYIYGERVKDVTTHPAFRNAAASVAQLYDALHKPEMQDSLCWNTDTGSGGYTHKFFRVAKSADDLRHERDAIAEWSRLSYGWMGRTPDYKAAFGCALGGTPGFYGQFEQNARNWYTRIQETGLYFNHAIVNPPIDRHLPTDKVKDVYIKLEKETDAGIIVSGAKVVATNSALTHYNMIGFGSAQVMGENPDFALMFVAPMDADGVKLISRASYEMVAGATGSPYDYPLSSRFDENDAILVMDNVLIPWENVLLYRDFDRCRRWTMEGGFARMYPLQACVRLAVKLDFITALLKKSLECTGTLEFRGVQADLGEVVAWRNTFWALSDSMCSEATPWVNGAYLPDHAALQTYRVLAPMAYAKIKNIIERNVTSGLIYLPSSARDLNNPQIDQYLAKYVRGSNGMDHVQRIKILKLMWDAIGSEFGGRHELYEINYSGSQDEIRLQCLRQAQSSGNMDKMMAMVDRCLSEYDQNGWTVPHLHNNDDINMLDKLLK
Usually kcat/Km stands for the turnover number divided by the Michaelis constant. For B1, in data set [5], the Km came to 145.1 µM, the catalytic constant (kcat) came to 0.0933 s⁻¹ and the catalytic efficiency (kcat/Km) worked out at 643 M⁻¹ s⁻¹. In data set [6], the Km is 262.2 µM, the kcat was determined as 0.0667 s⁻¹ and the kcat/Km was 254 M⁻¹ s⁻¹.
